Source: US9890147B2 (BAYER PHARMA AKTIENGESELLSCHAFT, priority 2012, dated 2018)

Assays:
[1] = test system: MOLP-8 cells; experiment: Cell proliferation assay (alamarBlue), MOLP-8; type: cell-based; settings: Homo sapiens, 120 hours incubation, inhibition of cell proliferation
Description: In accordance with the invention, the capability of the substances to inhibit cell proliferation was determined Cell viability was determined using the alamarBlue® reagent (Invitrogen) in a Victor X3 Multilabel Reader (Perkin Elmer). The excitation wavelength was 530 nm and the emission wavelenth […].
The MOLP-8 cells (DSMZ, ACC 569) were sown at a concentration of 4000 cells/well in 100 μl growth medium (RPMI1640, 20% FCS) on 96-well microtitre plates.
After an overnight incubation at 37° C., the fluorescence values (CI values) were determined. The plates were then treated with various substance dilutions (1E-5 M, 3E-6 M, 1E-6M, 3E-7 M, 1E-7 M, 3E-8 M, 1E-8 M) and incubated at 37° C. for 72 (MV4-11-, LOX-IMVI cells), 96 (MOLM-13-, B16F10-, MDA-MB-431-, Caov-3 cells), 120 (MOLP-8-, KMS-12-PE cells) or 168 (LAPC-4 cells) hours. The fluorescence values (CO values) were then determined. For the data analysis, the CI values were subtracted from the CO values and the results were compared between cells treated with different dilutions of the substance or with buffer solution only. These were used to calculate the IC 50 values (substance concentration required for 50% inhibition of cell proliferation).

[2] = test system: MOLM-13 cells; experiment: Cell proliferation assay (alamarBlue), MOLM-13; type: cell-based; settings: Homo sapiens, 96 hours incubation, inhibition of cell proliferation
Summary of the method: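 IC50 = concentration giving 50% growth inhibition relative to buffer-treated cells, after subtracting baseline fluorescence taken before dosing. Compound applied at 1E-5 to 1E-8 M for 96 h at 37 °C in RPMI1640 with 10% FCS; alamarBlue signal at 530/590 nm.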

[3] = biological target: T1, BRD4 (BD1) (Homo sapiens, UniProt O60885); experiment: Binding assay BRD4/acetylated peptide H4 (TR-FRET protein-protein interaction assay)
T1 construct: with relatively long constructs also being possible, preferably amino acids 44-168; made in house; host or cells: E. coli
Summary of the method: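 Displacement of biotin-Ac-H4 peptide from His6-tagged BRD4(BD1), final usually 10 nM, read as Eu-streptavidin to anti-His-XL665 TR-FRET (665/620 nm). Compounds tested at 11 doses up to 20 μM in duplicate, pH 7.5 HEPES, 22 °C then 4 °C incubation; IC50 by 4-parameter regression.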

SMILES | IC50 [1] [nM] | IC50 [2] [nM] | IC50 [3] [nM]
CNC(=O)N1N=C(c2ccc(Cl)cc2)c2cc(OCc3cccc(C)n3)ccc2CC1C (racemic) [Example 167] | 2950 | 3240 | 310
CNC(=O)N1N=C(c2ccc(Cl)cc2)c2cc(-n3nc(C)cc3C)ccc2CC1C (racemic) [Example 174, (±)-1-(4-Chlorophenyl)-8-(3,5-dimethyl-1H-pyrazol-1-yl)-N,4-dimethyl-4,5-dihydro-3H-2,3-benzodiazepine-3-carboxamide] | 2030 | 2340 | 250
CNC(=O)N1N=C(c2ccc(-c3sc(C)nc3C)cc2)c2cc(OC)c(OC)cc2C[C@H]1C (single isomer, unassigned) [Example 46.2] | 9470 | > 10000 | 1160
CNC(=O)N1N=C(c2ccc(-c3c(C)noc3C)cc2)c2cc(OC)c(OC(F)F)cc2C[C@@H]1C [Example 162.1, (4S)-7-(difluoromethoxy)-1-[4-(3,5-dimethylisoxazol-4-yl)phenyl]-8-methoxy-N,4-dimethyl-4,5-dihydro-3H-2,3-benzodiazepine-3-carboxamide] | – | 210 | 100
CNC(=O)N1N=C(c2ccc(-c3c(C)noc3C)cc2)c2cc(OC)c(OC(F)F)cc2C[C@H]1C [Example 162.2, (4R)-7-(difluoromethoxy)-1-[4-(3,5-dimethylisoxazol-4-yl)phenyl]-8-methoxy-N,4-dimethyl-4,5-dihydro-3H-2,3-benzodiazepine-3-carboxamide] | – | 1680 | 560
CNC(=O)N1N=C(c2ccc(N3CCN(C)CC3)cc2)c2cc(OC)c(OC(F)F)cc2C[C@H]1C [Example 163.1, (4R)-7-(difluoromethoxy)-8-methoxy-N,4-dimethyl-1-[4-(4-methylpiperazin-1-yl)phenyl]-4,5-dihydro-3H-2,3-benzodiazepine-3-carboxamide] | – | 7080 | 8940
CNC(=O)N1N=C(c2ccc(N3CCN(C)CC3)cc2)c2cc(OC)c(OC(F)F)cc2C[C@@H]1C [Example 163.2, (4S)-7-(difluoromethoxy)-8-methoxy-N,4-dimethyl-1-[4-(4-methylpiperazin-1-yl)phenyl]-4,5-dihydro-3H-2,3-benzodiazepine-3-carboxamide] | – | 260 | 30
CNC(=O)N1N=C(c2ccc(Cl)cc2)c2cc(OCCCN3CCN(C)CC3)ccc2C[C@@H]1C [Example 164.2, (4S)-1-(4-chlorophenyl)-N,4-dimethyl-8-[3-(4-methylpiperazin-1-yl)propoxy]-4,5-dihydro-3H-2,3-benzodiazepine-3-carboxamide] | – | 420 | 60
CNC(=O)N1N=C(c2ccc(-c3c(C)noc3C)cc2)c2cc(N3CCOCC3)ccc2C[C@H]1C [Example 176.1, (4R)-1-[4-(3,5-Dimethylisoxazol-4-yl)phenyl]-N,4-dimethyl-8-(morpholin-4-yl)-4,5-dihydro-3H-2,3-benzodiazepine-3-carboxamide] | – | 2190 | 730
CNC(=O)N1N=C(c2ccc(-c3c(C)noc3C)cc2)c2cc(N3CCOCC3)ccc2C[C@@H]1C [Example 176.2, (4S)-1-[4-(3,5-Dimethylisoxazol-4-yl)phenyl]-N,4-dimethyl-8-(morpholin-4-yl)-4,5-dihydro-3H-2,3-benzodiazepine-3-carboxamide] | – | 250 | 40
CNC(=O)N1N=C(c2ccc(N3CCOCC3=O)cc2)c2cc(OC)ccc2C[C@@H]1C [Example 177, (4S)-8-Methoxy-N,4-dimethyl-1-[4-(3-oxomorpholin-4-yl)phenyl]-4,5-dihydro-3H-2,3-benzodiazepine-3-carboxamide] | – | 490 | 70
CNC(=O)N1N=C(c2ccc(N3CCC(OC)CC3)cc2)c2cc(OC)c(OC)cc2C[C@@H]1C [Example 179.2, (4S)-7,8-dimethoxy-1-[4-(4-methoxypiperidin-1-yl)phenyl]-N,4-dimethyl-4,5-dihydro-3H-2,3-benzodiazepine-3-carboxamide] | – | 80 | 40
CNC(=O)N1N=C(c2ccc(N3CCC(N(C)C)CC3)cc2)c2cc(OC)c(OC)cc2C[C@H]1C [Example 180.1, (4R)-1-{4-[4-(dimethylamino)piperidin-1-yl]phenyl}-7,8-dimethoxy-N,4-dimethyl-4,5-dihydro-3H-2,3-benzodiazepine-3-carboxamide] | – | 2700 | 390
CNC(=O)N1N=C(c2ccc(N3CCC(N(C)C)CC3)cc2)c2cc(OC)c(OC)cc2C[C@@H]1C [Example 180.2, (4S)-1-{4-[4-(dimethylamino)piperidin-1-yl]phenyl}-7,8-dimethoxy-N,4-dimethyl-4,5-dihydro-3H-2,3-benzodiazepine-3-carboxamide] | – | 50 | 60
CNC(=O)N1N=C(c2ccc(N3CC(C)(O)C3)cc2)c2cc(OC)c(OC)cc2C[C@@H]1C [Example 185.2, (4S)-1-[4-(3-hydroxy-3-methylazetidin-1-yl)phenyl]-7,8-dimethoxy-N,4-dimethyl-4,5-dihydro-3H-2,3-benzodiazepine-3-carboxamide] | – | 100 | 30
CNC(=O)N1N=C(c2ccc(N3CCC(C)(O)CC3)cc2)c2cc(OC)c(OC)cc2C[C@H]1C [Example 188.1, (4R)-1-[4-(4-hydroxy-4-methylpiperidin-1-yl)phenyl]-7,8-dimethoxy-N,4-dimethyl-4,5-dihydro-3H-2,3-benzodiazepine-3-carboxamide] | – | 1130 | 270
CNC(=O)N1N=C(c2ccc(N3CCC(C)(O)CC3)cc2)c2cc(OC)c(OC)cc2C[C@@H]1C [Example 188.2, (4S)-1-[4-(4-hydroxy-4-methylpiperidin-1-yl)phenyl]-7,8-dimethoxy-N,4-dimethyl-4,5-dihydro-3H-2,3-benzodiazepine-3-carboxamide] | – | 70 | 30
CC[C@H]1Cc2cc(OC)c(OC)cc2C(c2ccc(N3CCN(C)CC3)cc2)=NN1C(=O)NC [Example 201.1, (4S)-4-ethyl-7,8-dimethoxy-N-methyl-1-[4-(4-methylpiperazin-1-yl)phenyl]-4,5-dihydro-3H-2,3-benzodiazepine-3-carboxamide] | – | 1990 | 710
CC[C@H]1Cc2cc(OC)c(OC)cc2C(c2ccc(N3CCNCC3)cc2)=NN1C(=O)NC [Example 202.1, (4S)-4-ethyl-7,8-dimethoxy-N-methyl-1-[4-(piperazin-1-yl)phenyl]-4,5-dihydro-3H-2,3-benzodiazepine-3-carboxamide] | – | 580 | 640
CC[C@H]1Cc2cc(OC)c(OC)cc2C(c2ccc(N3CCN(S(C)(=O)=O)CC3)cc2)=NN1C(=O)NC [Example 203.1, (4S)-4-ethyl-7,8-dimethoxy-N-methyl-1-{4-[4-(methylsulphonyl)piperazin-1-yl]phenyl}-4,5-dihydro-3H-2,3-benzodiazepine-3-carboxamide] | – | 1270 | 260
CC[C@H]1Cc2cc(OC)c(OC)cc2C(c2ccc(N3CCOCC3)cc2)=NN1C(=O)NC [Example 209, (4S)-4-ethyl-7,8-dimethoxy-N-methyl-1-[4-(morpholin-4-yl)phenyl]-4,5-dihydro-3H-2,3-benzodiazepine-3-carboxamide] | – | 190 | 370
CNC(=O)N1N=C(c2ccc(N3CCCN(C)CC3=O)cc2)c2cc(OC)c(OC)cc2C[C@@H]1C [Example 229, (4S)-7,8-dimethoxy-N,4-dimethyl-1-[4-(4-methyl-2-oxo-1,4-diazepan-1-yl)phenyl]-4,5-dihydro-3H-2,3-benzodiazepine-3-carboxamide] | – | 140 | 70
CNC(=O)N1N=C(c2ccc(-c3c(C)nn(C)c3C)cc2)c2cc(OC(F)(F)F)ccc2C[C@@H]1C [Example 249.1, (4S)-N,4-dimethyl-8-(trifluoromethoxy)-1-[4-(1,3,5-trimethyl-1H-pyrazol-4-yl)phenyl]-4,5-dihydro-3H-2,3-benzodiazepine-3-carboxamide] | – | 60 | 20
CNC(=O)N1N=C(c2ccc(N3CCN(C)CC3)c(Br)c2)c2cc(OC)c(OC)cc2C[C@@H]1C [Example 253, (4S)-1-[3-Bromo-4-(4-methylpiperazin-1-yl)phenyl]-7,8-dimethoxy-N,4-dimethyl-4,5-dihydro-3H-2,3-benzodiazepine-3-carboxamide] | – | 60 | 40
CNC(=O)N1N=C(c2ccc(N3CCN(C)CC3)c(C#N)c2)c2cc(OC)c(OC)cc2C[C@@H]1C [Example 254, (4S)-1-[3-Cyano-4-(4-methylpiperazin-1-yl)phenyl]-7,8-dimethoxy-N,4-dimethyl-4,5-dihydro-3H-2,3-benzodiazepine-3-carboxamide] | – | 170 | 110
